Data on eleven compounds can be found in ChEMBL document CHEMBL1201862, “PubChem BioAssay data set” (2004).

What all share (assay): DTP human tumour cell line panel, 48 h
Assay [1] has as its system U-251.
The test system of assay [2] is HCT-15.
The test system of assay [3] is MDA-N.
Assay [4] has as its system UACC-257.
Assay [5] concerns OVCAR-5.
Assay [6] has as its system 786-0.
The subject of assay [7] is NCI-H226.
The subject of assay [8] is SF-295.
Assay [9] concerns Hs-578T.
For assay [10], the system named is SN12C.
Assay [11] has as its system MDA-MB-435.
The subject of assay [12] is HOP-92.
The test system of assay [13] is HCC 2998.
Assay [14] deals with HOP-62.
The test system of assay [15] is MOLT-4.
For assay [16], the system named is MCF7.
Assay [17] concerns SK-OV-3.
Assay [18] concerns UO-31.
Assay [19] concerns T47D.
In assay [20] the test system is OVCAR-4.

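Growth conditions: 96-well plates. Treatment: test compound, 48 hours, 5 concentrations. Analysis: linear interpolation between bracketing concentrations; unreached endpoints set to highest concentration. GI50: concentration for 50% inhibition of growth.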 Active and inactive are the calls of the source. Rule as the data show it: active = GI50 up to about 1.1 µM and inactive = higher.

The GI50 is the concentration at which growth is held to half of that of the control. Regarding `O=c1ssc2ncccc12`, the GI50 in assay [1] is 15.7 µM (inactive); in [2], 12.1 µM; in assay [3], 19 µM (inactive); in assay [4], 20.3 µM (inactive); in [5] it was 26 µM (inactive); in assay [6] it was 16.9 µM (inactive). Further, the 50% growth inhibitory concentration (GI50) in assay [7] was 0.212 µM (active); in [8] it was 33.5 µM (inactive); in assay [9] it was 46.3 µM (inactive); in [10], 15.1 µM (inactive); in assay [11], 15.4 µM (inactive); in [12], > 100 µM (inactive). Also, the GI50 in assay [13] is 19.8 µM (inactive); in assay [14], 20.7 µM (inactive); in [15], 64 µM (inactive); in assay [16], 13.8 µM (inactive); in assay [17] it was > 100 µM (inactive); in [18], 16.4 µM (inactive). In addition, the GI50 in assay [19] is 46 µM (inactive).

As for `CCOC(=O)C(O)(C(=O)OCC)c1cc(C(C)(C)C)c(O)c(C(C)(C)C)c1`, the GI50 in [1] was 41 µM (inactive); in [2], 42 µM; in assay [3], 36.4 µM (inactive); in assay [4], 34.4 µM (inactive); in [5], 41.2 µM (inactive); in [6], 51.4 µM (inactive). The GI50 in assay [7] was 16.4 µM (inactive); in assay [8], 22.5 µM (inactive); in assay [9], 32.7 µM (inactive); in assay [10], 43.4 µM (inactive); in assay [11], 37.2 µM (inactive); in [20], > 100 µM (inactive). The GI50 in [12] was 26.9 µM (inactive); in assay [14], > 100 µM (inactive); in assay [15], 25.8 µM (inactive); in [16], 40.4 µM (inactive); in [17], 70.3 µM (inactive); in [18] it was 52.2 µM (inactive). Also, the GI50 in [19] was 62.2 µM (inactive).

Take `O=C(NC(CCCCN1C(=O)c2ccccc2C1=O)P(=O)(Oc1ccccc1)Oc1ccccc1)OCc1ccccc1` (configuration not stated): the GI50 was > 100 µM (inactive) in assay [1]; more than 10 µM in assay [2]; > 100 µM (inactive) in assay [3]; > 100 µM (inactive) in assay [4]; > 100 µM (inactive) in assay [5]; > 100 µM (inactive) in [6]. The GI50 in [7], in assay [8], in assay [9], in assay [10], in assay [11] and in [12] was > 100 µM (inactive) each time. For the same compound, the GI50 in assay [13] is > 100 µM (inactive); in [14] it was 71.8 µM (inactive); in [16], > 100 µM (inactive); in assay [17], > 100 µM (inactive); in assay [18] it was > 100 µM (inactive); in [19], > 100 µM (inactive).

For `COc1cccc(CSCC(=O)O)c1`, the GI50 was > 100 µM (inactive) in assay [1]; more than 100 µM in [2]; > 100 µM (inactive) in assay [3]; > 100 µM (inactive) in [4]; > 100 µM (inactive) in assay [5]; > 100 µM (inactive) in assay [6]. Also, the GI50 in [7], in assay [8], in [9], in assay [10], in assay [11] and in [20] was > 100 µM (inactive) each time. Besides, the GI50 in [12], in [14], in assay [16], in assay [17], in [18] and in assay [19] was > 100 µM (inactive) each time.

Take `COc1cc(CNc2nc3cc(C(F)(F)F)ccc3nc2C)cc(OC)c1OC`: the GI50 is 15.3 µM (inactive) in assay [1]; 13.1 µM in assay [2]; 15.8 µM (inactive) in assay [3]; 16.6 µM (inactive) in assay [4]; > 10 µM (inactive) in assay [6]; > 10 µM (inactive) in assay [7]. The GI50 was 19.1 µM (inactive) in assay [8]; 13.5 µM (inactive) in [9]; 14.7 µM (inactive) in assay [10]; 19.5 µM (inactive) in assay [11]; 18.3 µM (inactive) in [13]; 24.3 µM (inactive) in [14]. In addition, the GI50 in [15] is 10.9 µM (inactive); in assay [16], > 10 µM (inactive); in assay [18], 17.7 µM (inactive); in assay [19], 17.9 µM (inactive).

On to `C=CCN(c1cc(OCc2ccccc2)c2c(c1)c(C)cn2S(=O)(=O)c1ccccc1)S(C)(=O)=O`, for which the GI50 in assay [1] is > 100 µM (inactive); in assay [2] it was more than 100 µM; in [3] it was > 100 µM (inactive); in assay [4], > 100 µM (inactive); in assay [5], > 100 µM (inactive); in assay [6] it was > 100 µM (inactive). Moreover, the GI50 in assay [7], in [8], in assay [9], in [10], in assay [11] and in assay [20] was > 100 µM (inactive) each time. The GI50 in [12], in [13], in assay [14], in assay [15], in assay [17] and in [19] was > 100 µM (inactive) each time.

On to `CCn1ncc2c(=O)n3ncn(-c4ccc(Br)cc4)c3nc21`, for which the GI50 in assay [1] was > 100 µM (inactive); in assay [2], more than 100 µM; in [3] it was > 100 µM (inactive); in assay [4], > 100 µM (inactive); in [5], > 100 µM (inactive); in assay [6], > 100 µM (inactive). The GI50 in assay [7], in assay [8], in assay [9], in assay [10], in assay [11] and in assay [20] was > 100 µM (inactive) each time. The GI50 in assay [13], in assay [14], in assay [15], in assay [16], in assay [17] and in [18] was > 100 µM (inactive) in each case. Further, in assay [19], the GI50 is > 100 µM (inactive).

With `CCOC(=O)CCC(NC(=O)OCc1ccccc1)C(=O)NC(CCC(=O)OCC)C(=O)NC(CCC(=O)OCC)C(=O)NC(CCC(=O)OCC)C(=O)NC(CCC(=O)OCC)C(=O)OCC` (configuration not stated), the GI50 in assay [1] was > 100 µM (inactive); in assay [2] it was more than 100 µM; in assay [3], > 100 µM (inactive); in assay [4] it was > 100 µM (inactive); in assay [5], > 100 µM (inactive); in assay [6] it was > 100 µM (inactive). In addition, the GI50 in [8], in assay [9], in assay [10], in assay [11], in assay [20] and in [14] was > 100 µM (inactive) throughout. The GI50 in [15], in assay [16], in assay [17], in assay [18] and in assay [19] was > 100 µM (inactive) each time.

In the case of `COc1ccc(C2SC(=N)Nc3c2c(C)nn3C(=O)Cc2ccccc2)cc1` (configuration not stated), the GI50 in [2] is more than 100 µM; in assay [3], > 100 µM (inactive); in [4], > 100 µM (inactive); in assay [6] it was > 100 µM (inactive); in assay [7] it was > 100 µM (inactive); in assay [8], > 100 µM (inactive). Also, the GI50 in assay [9], in [10], in assay [11], in assay [13], in assay [14] and in assay [15] was > 100 µM (inactive) each time. The GI50 in assay [16], in assay [17], in assay [18] and in [19] was > 100 µM (inactive) each time.

Regarding `C[C@@H]1CC[C@@]2(C)C(C(=O)O)=CCCC2[C@@]1(C)CC(=O)c1ccoc1` (some centres not stated), the GI50 in assay [1] is > 25 µM (inactive); in assay [2], more than 25 µM; in assay [3] it was > 25 µM (inactive); in assay [4], > 25 µM (inactive); in [5], > 25 µM (inactive); in [6] it was > 25 µM (inactive). Further, the GI50 in assay [7], in assay [8], in [9], in assay [10], in assay [11] and in [20] was > 25 µM (inactive) in each case. Besides, the GI50 in assay [12], in assay [15], in assay [16], in assay [17], in [18] and in assay [19] was > 25 µM (inactive) in each case.

In the case of `COc1cc(/C=C2\CCC/C(=C\c3cc(OC)c(O)c(OC)c3)C2=O)cc(OC)c1O`, the GI50 is 1.36 µM (inactive) in assay [1]; 1.52 µM in assay [2]; 1.79 µM (inactive) in [3]; 3.42 µM (inactive) in assay [4]; 2.05 µM (inactive) in [5]; 1.7 µM (inactive) in [6]. In addition, the GI50 is 10.4 µM (inactive) in assay [7]; 2.03 µM (inactive) in assay [8]; 3.75 µM (inactive) in [9]; 2.32 µM (inactive) in assay [10]; 1.84 µM (inactive) in assay [11]; 3.16 µM (inactive) in [20]. The GI50 in assay [13] is 1.35 µM (inactive); in assay [14], 1.8 µM (inactive); in assay [15] it was 4.38 µM (inactive); in [16] it was 3.12 µM (inactive); in assay [17] it was 1.81 µM (inactive); in assay [18], 1.69 µM (inactive). For the same compound, the GI50 in assay [19] was 2.79 µM (inactive).
